Source: patent US10039741B2, “Use of delta tocopherol for the treatment of lysosomal storage disorders” (The United States of America, as represented by the …, priority 2010, dated 2018)

Experiments:
[1] = test system: NPCD fibroblasts; assay: Lysotracker staining assay (lysosome size); type: cell-based, human
Description: Lysotracker is fluorescent dye that stains acidic compartments in live cells and is well-retained after aldehyde fixation. We have optimized a lysotracker staining assay to visualize the enlarged lysosome size in the NPC skin fibroblasts by applying appropriate concentration of lysotracker dye in comparison with these normal fibroblast cells. Cells were seeded at 8000 cells/well in 100 μl medium in a black/clear bottom, tissue culture treated plate and cultured overnight or in a dedicated time. The cells were live-stained with 100 u/well 50 nM Lysotracker Red-99 dye (Invitrogen) dissolved medium at 37° C. for 1 hr followed by two-times plate wash with PBS buffer using the plate-inverted centrifugation method. The plate was then added with 100 μl/well 3.2% formaldehyde and 1 μg/ml Hoechst 33342 (Invitrogen) in PBS and incubated at room temperature for 30 minutes. After three times of plate wash with PBS buffer, samples were stored at 4° C. until imaging. Samples were photographed using an IN Cell Analyzer 1000 (GE Healthcare) with a 20× objective equipped with CCD camera. DAPI filter and TRITC filter were used to visualize Hoechst and Lysotracker red, respectively. The images were processed by Adobe Photoshop.

[2] = test system: Niemann Pick type A disease fibroblasts; assay: Lysotracker staining assay; type: cell-based, human
[3] = test system: Wolman disease fibroblasts; assay: Lysotracker staining assay; type: cell-based, human
[4] = test system: Tay-Sachs disease fibroblasts; assay: Lysotracker staining assay; type: cell-based, human
[5] = test system: NPC fibroblasts; assay: Lipid measurement by mass spectrometry (GC/MS); type: cell-based, human; details: 80 μM α-tocopherol or 40 uM δ-tocopherol for 5 days
Description: (§1) Effects of δ-tocopherol and α-tocopherols on (FIG. 4A) free cholesterol, (FIG. 4B) cholesterol ester and (FIG. 4C) sphingomyelin in NPC cells. NPC or WT cells were treated with DMSO, 80 μM α-tocopherol or 40 uM δ-tocopherol for 5 days. Cell pellets were collected and extracted for lipids. FC EC and sphingomyelin levels were measured by GC/MS. (FIG. 4D) Effects of δ-tocopherols and α-tocopherols on cholesterol efflux.
(§2) Cell pellets were collected from 100-mm dishes and washed once with 10 ml PBS. Proteins were assayed using the BCA kit (Sigma-Aldrich) and lipids were extracted by modified Bligh and Dyer procedure (29) from the cells. Internal standards were added based on protein concentration that included N12:0 sphingomyelin, D7-cholesterol, 17:0 cholesterol ester (Avanti Polar Lipids, Inc). A portion of the lipid extract was used for detection of sphingomyelins using direct infusion mass spectrometric assay with lithium hydroxide for facilitating ionization and the rest was used to convert cholesterol and its ester into acetate by derivatization. The derivatization was performed by treating the dried crude lipid extract with solutions of 1 M acetic acid with 1 M DMAP in chloroform and 1 M EDC in chloroform at 50° C. for 2 hours. The derivatized product was extracted with hexane and analyzed by direct infusion mass spectrometric assay with 5% ammonium hydroxide for facilitating ionization.
(§3) A triple-quadrupole mass spectrometer equipped with an electrospray was used for analysis of lipids in positive mode. Sphingomyelins, cholesterol and cholesterol esters were detected by neutral loss scan of 213 (collision energy: 50 V), neutral loss scan of 77 (collision energy: 14 V) and precursor ion scan of m/z 369 (collision energy: 14 V) respectively. Data processing of mass spectrometric analyses including ion peak selection, data transferring, peak intensity comparison and quantitation was conducted using self-programmed Microsoft Excel macros (30).

[6] = test system: wild type cells; assay: Lipid measurement by mass spectrometry (GC/MS); type: cell-based, human
Description: as §1, §2, §3

[7] = test system: Wolman disease cells; assay: Amplex-red cholesterol assay (total cholesterol), combination therapy; type: cell-based, human
Description: (1) Amplex-red cholesterol assay. This biochemical assay (Invitrogen) uses cholesterol oxidase and a HRP-Amplex-re reporting system to measure the free cholesterol level in cells. With the addition of acid lipase to this assay, that hydrolyzes cholesterol ester to free cholesterol, the level of total cholesterol in cells including the cholesterol ester can be measured. This assay was used for detecting the total cholesterol level of in fibroblasts from patients with Wolman disease.

[8] = test system: WT fibroblasts; assay: Microarray gene expression; type: cell-based, human; design: ACACA expression, Toco treat WT / HMGCR expression, Toco treat WT / SREBF2 expression, Toco treat WT / LDLR expression, Toco treat WT: unit not given here; details: 40 μM delta-tocopherol 5 days vs DMSO-treated
Description: Five NPC fibroblast cell lines as well as five normal fibroblast cell lines were treated with 40 μM delta-tocopherol for 5 days with a medium change and sully of fresh compound on 3rd day. The total RNAs was prepared as the standard method described previously ( ). The microarray gene expression experiment was carried out in a core microarray facility at NHGRI with a set of AAAAA chips (Affymetrix). Partek Genomics Software Suite (Copyright, Partek Inc.) was used to perform analysis of microarray data. Affymetrix cell files were loaded into the software using the RMA algorithm, which involved background correction, quantile normalization, log-2 transformation, and median polish summarization. PCA and hierarchical clustering identified one sample as an outlier. This sample (sample number 12) was not considered for further analysis. ANOVA was performed to identify the differentially expressed genes for three comparisons: 1) NPC_DMSO vs WT_DMSO 2) NPC tocopherol-treated vs NPC_DMSO-treated and 3) WT_tocopherol-treated vs WT_DMSO-treated.

[9] = human plasma, physiological level; cited from earlier work
[10] = wild type cells, 80 μM α-tocopherol or 40 uM δ-tocopherol for 5 days

SMILES: Cc1cc(O)cc2c1O[C@](C)(CCC[C@H](C)CCC[C@H](C)CCCC(C)C)CC2 [δ-tocopherol]
- effect on lysosome size decrease ([1]; 9 additional fibroblast primary cells from different NPCD patients): confirmed
- enlarged lysosome size ([1]; NPCD fibroblasts): decreased and shrunken to the size similar to the wild type cells
- size of enlarged lysosomes [2]: significantly reduced
- size of enlarged lysosomes [3]: significantly reduced
- size of enlarged lysosomes [4]: significantly reduced
- amount of cholesterol ester ([5]; NPCD cells): significantly reduced
- sphingomyelin amount ([5]; NPCD cells): not significantly changed
- free cholesterol level ([5]; NPCD fibroblasts): nearly recovered to the normal level as in the wild type cells
- free cholesterol level ([6]; normal (WT) cells, 5 days): reduced slightly
- amount of cholesterol ester [6, 10]: significantly reduced
- sphingomyelin amount [6, 10]: not significantly changed
- cholesterol level, sole therapy ([7]; 40 μM delta-tocopherol or 80 μM alpha-tocopherol alone): cholesterol reduction effect
- cholesterol level, combination ([7]; delta-tocopherol 10 μM combined with 10 μM MBCD): cholesterol reduction effect
- interaction of delta-tocopherol and cyclodextrin ([7]; sub-effective concentrations combined): synergetic or additive effect
- ABCA1 expression, Toco treat WT [8]: −1.4
- ACACA expression, Toco treat WT [8]: −1.5
- DHCR7 expression, Toco treat WT [8]: −1.6
- FADS2 expression, Toco treat WT [8]: −2.0
- FRRS1 expression, Toco treat WT [8]: −1.1
- HMGCR expression, Toco treat WT [8]: −1.5
- HMGCS1 expression, Toco treat WT [8]: −1.6
- INSIG1 expression, Toco treat WT [8]: −1.6
- LDLR expression, Toco treat WT [8]: −2.0
- MMP1 expression, Toco treat WT [8]: 5.0
- MMP3 expression, Toco treat WT [8]: 2.0
- NOX4 expression, Toco treat WT [8]: −1.7
- SC4MOL expression, Toco treat WT [8]: −1.7
- SCD expression, Toco treat WT [8]: −3.5
- SREBF1 expression, Toco treat WT [8]: −1.2
- SREBF2 expression, Toco treat WT [8]: −1.6
- plasma concentration [9]: ~100 nM
